Data as given in US20070099826A1, “Treatment of diseases associated with the egr-1 enhancer element” (priority 2003, published 2007).

Legend:
APO A1 promoter [1] = test: APO A1 promoter activity, pA1.474-Luc reporter transiently transfected in Hep G2 cells; assay type: cell-based, human
Experimental: (§1) The plasmids created for the studies contained the human APO A1 promoter from −474, −375, −325, −235, −190 to −170 fused to the firefly luciferase gene in the vector, pGL3 (Promega). Insertion of the promoter DNA was verified by nucleotide sequence analysis. Plasmid DNA was prepared from bacteria containing the desired clone and isolated using Qiagen kits according to manufacturer's instructions and used in the tansfection studies or to create a stable cell line.
(§2) The CaCo2 or HepG2 cells were grown in the defined media and, for promoter assay studies, transfected with the reporter construct of interest. Cells were then left in serum-free media for 8-12 hours after which time resveratrol was added to media to give a final concentration of the agent as stated in the figure legends. The cells were exposed to the agent for varying periods of time, harvested and then the parameter of interest, either APO A1 protein or promoter activity, was assayed.
(§3) For transient transfections cells were seeded onto six well plates and grown to 30-40% confluence, The cells were then transfected using 5 μl of Superfect (Qiagen) and up to one microgram of the plasmid of interest in 100 μl of serum and antibiotic free MEM. The solution was incubated for 10 minutes at room temperature. Media was then removed from the cells to be transfected and 1 ml of media was added to the DNA-Superfect mixture before being applied to the cells. The cells were then exposed to the DNA for 2 hours at 37° C./5% CO2 and then the media containing DNA was removed and replaced with serum free MEM media allowed to grow over night prior to harvest.
Cells were transfected with Luciferase plasmid of interest (see above) and left to recover overnight in serum poor media. These cells or those that were permanently transfected with the luciferase promoter were then treated with varying concentrations of resveratrol for stated periods of time. As above, RSV-beta-Gal was co-transfected as a control to normalize for DNA uptake. […] Luciferase activity was then determined and expressed relative to the protein concentration of that sample. […]

APO A1 protein [2] = test: Western blot of APO A1 protein in spent media from CaCo2 cells; assay type: cell-based, human; details: 5 or 10 p,M, 36 hours
Experimental: (§4) Media or cells were harvested from untreated and treated HepG2/CaCo2 culture dishes at various time points and stored at −80° C. when required. For experiments in which media was collected for western blotting, cells from these dishes were trypsinized (Gibco) and a 100 μl sample of cells was used to determine the percentage of dead cells by counting live/dead cell ratios using […] staining. The remaining cells were then assessed for total DNA content using method described by Maniatis, (Cloning Manual). DNA content per dish was then utilized along with ratio of live/dead cells to normalize the amount of media to be separated by polyacrylamide gel electrophoresis. For experiments requiring western blot of whole cell lysates, cells were harvested and lysed using reporter lysis reagent (Promega) and cell debris was spun down at 13,000 rpm for 5 minutes. […]
This to experiment sought to measure whether resveratrol stimulation of transcriptional activity of the promoter in the CaCo2 cells increased the abundance of the APO A1 protein, ultimately responsible for the antiatherogenic activity of the gene. […] Longer exposure of the cells to resveratrol was utilized to allow adequate time for the APO A1 protein to be secreted into the media from the CaCo2 cells, and detected. […]

APO A1 promoter [3] = test: APO A1 promoter deletion constructs fused to Luc, transient transfection in CaCo2 cells; assay type: cell-based, human; details: 5 μM, minimum of 16 hours
Experimental: as §1, §3
(§5) Cells were transfected with Luciferase plasmid of interest (see above) and left to recover overnight in serum poor media. These cells or those that were permanently transfected with the luciferase promoter were then treated with varying concentrations of resveratrol for stated periods of time. As above, RSV-beta-Gal was co-transfected as a control to normalize for DNA uptake. Cells were then harvested and suspended in reporter lysis buffer (Promega). A 10 μl aliquot of this lysate was used for determination of luciferase activity, and 5 μl were used for total protein determination (Bradford Assay, Bio-Rad reagent). Luciferase activity was then determined and expressed relative to the protein concentration of that sample.
In order to identify the potential motif(s), separate constructs containing progressively smaller amounts of APO A1 DNA were fused to the Luc gene. The activity of each construct was tested by transient transfection assay in CaCo2 cells and than treated with 5 μM resveratrol for a minimum of 16 hours. […] The number at the bottom of each set of columns denotes the 5′ location of the fragment and the 3′ end is common to all deletional clones at −7. […] In contrast, further deletion with the remaining −170 to −7 fragment of the promoted abolished the resveratrol induction of the promoter. We discovered the resveratrol responsive motif in the APO A1 DNA must span nucleotides −190 to −170.

APO A1 protein [4] = test: Immunofluorescence staining of APO A1 protein in Hep G2 cells; assay type: cell-based, human; details: 5 or 10 μM
Experimental: (§6) Human hepatoblastoma cells (HepG2) and intestinal cells (CaCo2) were obtained from the American Type Culture Collection (Rockville, Md.). Cells were grown in Minimum Essential Medium (MEM) (Gibco) supplemented with 2 mM glutamine, MEM vitamin solution and 10% fetal bovine serum (FBS) for HepG2 and 20% FBS (Gibco) for CaCo2 cells. All cells were incubated in a 95% air/5% CO2 atmosphere.
The CaCo2 or HepG2 cells were grown in the defined media and, for promoter assay studies, transfected with the reporter construct of interest. Cells were then left in serum-free media for 8-12 hours after which time resveratrol was added to media to give a final concentration of the agent as stated in the figure legends. […]
(§7) HepG2 and CaCo2 cells were grown on cover slips. […] The FITC-labeled ApoA1 peptide in cells was visualized using a Zeiss fluorescence microscope (Zeiss, Dusseldorf, Germany) with FITC excitation and emission wavelengths of 488 and 520 nm. […]
Since the APO A1 gene is expressed in both liver and small intestine, the following studies examine the ability of resveratrol to affect expression of the gene in liver cells. […] Hep G2 cells were viewed under phase contrast or fluorescence microscopy following treatment with or without resveratrol and immunostaining for their content of APO A1 protein.

APO A1 protein [5] = test: Immunofluorescence staining of APO A1 protein in CaCo2 cells; assay type: cell-based, human; details: 5 and 10 μM, 36 hours of treatment
Experimental: as §6, §2
as §7, with “slips. Cover slips on which CaCo2 cells were grown were also coated with fibronectin (Calbiochem).” for “slips.”

APO A1 promoter [6] = test: APO A1 promoter activity, Hep G2 cells permanently transfected with pA1.474-Luc; assay type: cell-based, human; details: 10 μM resveratrol
Experimental: HepG2 cells were also permanently transfected with 474-luciferase using a co-transfection method. Hep G2 cells are grown in MEM (Gibco) and 10% fetal calf serum (Gibco) and then co-transfected with 474-Luc along with another plasmid that carries neomycin resistance.
as §5
To assay for promoter activity in Hep G2 cells, the reporter construct pA1.474-Luc was inserted into the human hepatoma, Hep G2, cells along with pRSV-β-galactosidase as a monitor for transfection efficiency using conventional molecular biology techniques as later described. The transfected cells were exposed to varying concentrations of resveratrol from 0 to 100 μM for 16 hours. […]

[7] = test system: human APO A1 promoter from −474 to −7; test: APO A1 promoter activity, pA1.474-Luc reporter transiently transfected in CaCo2 cells; assay type: cell-based
Experimental: as §1, §2, §3
Cells were transfected with Luciferase plasmid of interest (see above) and left to recover overnight in serum poor media. […] Luciferase activity was then determined and expressed relative to the protein concentration of that sample.
Next the CaCo2 cells were exposed to varying concentrations of resveratrol from 0 to 15 μM. […] At the end of the treatment, the cells were harvested and the Luc-activity measured. […]

APO A1 protein [8] = test: Western blot of APO A1 protein in spent media from Hep G2 cells; assay type: cell-based, human; details: 5 or 10 p,M, 36 hours
Experimental: as §4, with “minutes. An aliquot of the supernatant was then used to determine amount of protein per samples were using Bradford assay (Rio-Rad reagent). Equal amounts of protein from all samples were then separated by polyacrylamide gel electrophoresis as was done with media.” for “minutes.”
To measure whether resveratrol stimulation of the APO A1 promoter in the Hep G2 cells also increases the abundance of the protein, APO A1 secreted into the media was assessed following treatment with the compound. […]

Oc1ccc(/C=C/c2cc(O)cc(O)c2)cc1 [resveratrol, trans-3,5,4′-trihydroxystilbene]
concentration at which resveratrol becomes inhibitory on APO A1 promoter activity (APO A1 promoter [1]; 16 hours): ≥ 50 µM | increase in Luc-activity (APO A1 promoter) (APO A1 promoter [1]; 16 hours, 5 to 10 μM resveratrol): 3 fold | decrease in Luc-activity (APO A1 promoter [1]; 16 hours, 15, 25, 50, 75 or 100 μM): 50% | abundance of APO A1 protein in spent media (western blot) (APO A1 protein [2]): marked increase | increase in promoter activity, −190 to −7 fragment (APO A1 promoter [3]): 2.5 fold | increase in promoter activity, −235 to −7 fragment (APO A1 promoter [3]): 2.5 fold | induction of promoter activity, full-length (−474 to −7) promoter (APO A1 promoter [3]): 2.5 fold | induction of promoter, −170 to −7 fragment (APO A1 promoter [3]): abolished | fluorescence for APO A1 signal (immunostaining) (APO A1 protein [4]): increase in fluorescence | abundance of APO A1 signal (immunohistochemical staining) (APO A1 protein [5]): increase in the abundance of APO A1 signal | maximal increase of Luc-activity (APO A1 promoter [6]): 4 fold | optimal time point for stimulatory effect on APO A1 promoter ([7]; 5 μM, time points 4 to 24 hours): around 16 hours | maximal stimulation of APO A1 promoter activity (Luc-activity) ([7]; 16 hours, resveratrol 5 to 7.5 μM): 2.5 fold | resveratrol concentration causing maximal stimulation of APO A1 promoter activity ([7]; 16 hours, tested 0 to 15 μM): 5 to 7.5 µM | abundance of APO A1 protein in spent media (western blot) (APO A1 protein [8]): marked increase
